Laboratory results published in BindingDB's records for doi:10.1016/s0960-894x(01)00039-7 (Glaxosmithkline, 2001).

Biological target: Tyrosine--tRNA ligase (Staphylococcus aureus)
Test: Inhibitory activity against Staphylococcus aureus tyrosyl tRNA synthetase (YRS) using aminoacylation assay

## N[C@@H](Cc1ccc(O)cc1)C(=O)N[C@@H](C(=O)O)[C@@H]1OC[C@H](O)[C@H](O)[C@H]1O [[2-Amino-3-((S)-4-hydroxy-phenyl)-propionylamino]-((2S,3R,4S,5S)-3,4,5-trihydroxy-tetrahydro-pyran-2-yl)-acetic acid]
  IC50: 260 nM
